Structures can show the parent of a compound that is named as a salt. Where two headings read alike, the source gives them in different places.
Legend:
TBK1 = target: T1, TBK1 (Homo sapiens, UniProt Q9UHD2); assay: TBK Biochemical Assay; details: read-out: TBK1 IC50
T1 sequence (Q9UHD2 1-729): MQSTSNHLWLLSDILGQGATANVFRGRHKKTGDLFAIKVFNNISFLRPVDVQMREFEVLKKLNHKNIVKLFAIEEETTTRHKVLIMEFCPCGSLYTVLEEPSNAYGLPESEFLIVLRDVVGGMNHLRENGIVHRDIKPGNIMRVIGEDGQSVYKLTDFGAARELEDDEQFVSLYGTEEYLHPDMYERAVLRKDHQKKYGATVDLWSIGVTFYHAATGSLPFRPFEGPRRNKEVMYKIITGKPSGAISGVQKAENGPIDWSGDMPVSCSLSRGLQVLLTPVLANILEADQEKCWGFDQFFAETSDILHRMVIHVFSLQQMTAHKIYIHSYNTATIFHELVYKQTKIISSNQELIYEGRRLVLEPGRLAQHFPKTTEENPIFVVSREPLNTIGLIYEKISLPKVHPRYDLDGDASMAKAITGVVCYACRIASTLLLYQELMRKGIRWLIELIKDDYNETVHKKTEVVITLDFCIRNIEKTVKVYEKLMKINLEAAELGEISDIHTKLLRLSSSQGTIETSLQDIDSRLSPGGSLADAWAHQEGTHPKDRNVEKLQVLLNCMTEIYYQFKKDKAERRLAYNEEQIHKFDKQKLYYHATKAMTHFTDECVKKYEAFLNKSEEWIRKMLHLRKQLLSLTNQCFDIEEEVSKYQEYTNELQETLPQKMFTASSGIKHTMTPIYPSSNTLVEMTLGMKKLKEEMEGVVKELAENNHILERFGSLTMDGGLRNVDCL
In short: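 TBK1 enzyme and substrate incubated with compounds (10-point 1:4 dilution, top 30 uM final, 1% DMSO) for 90 min at 25° C, then stopped. Substrate/product peaks read by microfluidic mobility-shift (Caliper LabChip); 10 uM staurosporine as full-inhibition control.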

[1] = system: phosphorylation of the IRF-3 protein in MDA-MB-468 cells; assay: pIRF3 immunocytochemistry cell based assay; details: Homo sapiens
In short: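 MDA-MB-468 cells got compounds (10-point, 3-fold from 10 uM) for 1 h at 37 °C, then 10 ug/ml Poly(I:C) for 2 h. Fixed, permeabilized cells were immunostained for pIRF3 with AlexaFluor488 and counterstained with PI. % phosphorylation was read by laser scanning cytometry, and IC50 curves were fitted.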

IKKε = target: T2, IKKε (Homo sapiens, UniProt Q14164); assay: IKKe Biochemical Assay; details: read-out: IKKε IC50
T2 sequence (Q14164 1-716): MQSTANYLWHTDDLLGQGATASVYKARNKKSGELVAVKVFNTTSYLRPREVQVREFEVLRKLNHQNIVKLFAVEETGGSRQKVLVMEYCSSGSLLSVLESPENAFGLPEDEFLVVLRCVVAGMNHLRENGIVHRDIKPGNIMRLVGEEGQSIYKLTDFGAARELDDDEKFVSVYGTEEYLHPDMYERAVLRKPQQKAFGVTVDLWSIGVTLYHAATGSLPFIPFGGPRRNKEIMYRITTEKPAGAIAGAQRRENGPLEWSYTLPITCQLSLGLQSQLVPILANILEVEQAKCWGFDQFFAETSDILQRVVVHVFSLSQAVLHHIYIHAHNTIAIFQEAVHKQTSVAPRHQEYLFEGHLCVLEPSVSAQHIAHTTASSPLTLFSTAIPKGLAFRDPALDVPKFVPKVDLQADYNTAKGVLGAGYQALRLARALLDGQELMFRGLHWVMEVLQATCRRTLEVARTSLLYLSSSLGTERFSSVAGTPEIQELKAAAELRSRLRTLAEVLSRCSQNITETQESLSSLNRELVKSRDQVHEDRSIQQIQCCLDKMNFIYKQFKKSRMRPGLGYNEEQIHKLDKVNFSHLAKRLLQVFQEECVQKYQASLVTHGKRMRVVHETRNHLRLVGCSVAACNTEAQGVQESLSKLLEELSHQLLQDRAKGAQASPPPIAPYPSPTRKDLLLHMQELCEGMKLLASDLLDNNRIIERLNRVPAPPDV
In short: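 Recombinant IKKε and substrate were incubated with compound (10-point 1:4 series, top 30 uM final, 1% DMSO) for 90 min at 25° C, then stopped. Substrate-to-product conversion was read by LabChip microfluidic mobility shift; 10 uM staurosporine served as full-inhibition wells.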

[2] = MDA-MB-468 cells, Poly(I:C) stimulation, read-out: pIRF3 IC50
[3] = MDA-MB-468, read-out: pIRF3 IC50

Compound	IC50 (TBK1)	IC50 [1, 2]	IC50 (IKKε)	IC50 [1, 3]
COc1cc(C(=O)N2CC3CCC2CN3C)cnc1-c1cc2nccc(-c3ccc(OC4CCOCC4)c(C#N)c3)c2o1 (stereo not drawn) [Compound 406, 5-[2-[3-methoxy-5-(([5-methyl-2,5-diazabicyclo[2.2.2]octan-2-yl]carbonyl)pyridin-2-yl]furo[3,2-b]pyridin-7-yl]-2-(oxan-4-yloxy)benzonitrile hydrochloride]	< 100 nM	< 100 nM	< 100 nM	
COc1cc(C(=O)N2CCCCN2)cnc1-c1cc2nccc(-c3ccc(OC4CCOCC4)c(C#N)c3)c2o1 [Compound 407, 5-(2-[5-[(1,2-diazinan-1-yl)carbonyl]-3-methoxypyridin-2-yl]furo[3,2-b]pyridin-7-yl)-2-(oxan-4-yloxy)benzonitrile hydrochloride]	< 100 nM	100 to 1000 nM	< 100 nM	
COc1cc(C(=O)N2CCCCN2C)cnc1-c1cc2nccc(-c3ccc(OC4CCOCC4)c(C#N)c3)c2o1 [Compound 408, 5-(2-[3-methoxy-5-[(2-methyl-1,2-diazinan-1-yl)carbonyl]pyridin-2-yl]furo[3,2-b]pyridin-7-yl)-2-(oxan-4-yloxy)benzonitrile]	< 100 nM		< 100 nM	100 to 1000 nM
COc1cc(C(=O)N2CCCCC2)cnc1-c1cc2nccc(-c3ccc(N4CC[C@@H](F)C4)c(C#N)c3)c2o1 [Compound 410, 2-[(3R)-3-fluoropyrrolidin-1-yl]-5-(2-[3-methoxy-5-[(piperidin-1-yl)carbonyl]pyridin-2-yl]furo[3,2-b]pyridin-7-yl)benzonitrile]	< 100 nM	100 to 1000 nM	< 100 nM	
COc1cc(C(=O)N2CC3CCC(C2)O3)cnc1-c1cc2nccc(-c3ccc(OC4CCOCC4)c(C#N)c3)c2o1 [Compound 411, 5-[2-[3-methoxy-5-([8-oxa-3-azabicyclo[3.2.1]octan-3-yl]carbonyl)pyridin-2-yl]furo[3,2-b]pyridin-7-yl]-2-(oxan-4-yloxy)benzonitrile hydrochloride]	< 100 nM	100 to 1000 nM	< 100 nM	
COc1cc(C(=O)N2C3COCC2CC(O)C3)cnc1-c1cc2nccc(-c3ccc(OC4CCOCC4)c(C#N)c3)c2o1 (stereo not drawn) [Compound 412, 5-[2-[5-([7-hydroxy-3-oxa-9-azabicyclo[3.3.1]nonan-9-yl]carbonyl)-3-methoxypyridin-2-yl]furo[3,2-b]pyridin-7-yl]-2-(oxan-4-yloxy)benzonitrile]	< 100 nM	< 100 nM	< 100 nM	
COc1cc(C(=O)N2CC3CCC2CO3)ncc1-c1cc2nccc(-c3ccc(OC4CCOCC4)c(C#N)c3)c2o1 (stereo not drawn) [Compound 413, 5-[2-[4-methoxy-6-([2-oxa-5-azabicyclo[2.2.2]octan-5-yl]carbonyl)pyridin-3-yl]furo[3,2-b]pyridin-7-yl]-2-(oxan-4-yloxy)benzonitrile hydrochloride]	< 100 nM	100 to 1000 nM	< 100 nM	
COc1cc(C(=O)N2CC3CCC2CO3)cnc1-c1cc2nccc(-c3ccc(OC4CCOCC4)c(C#N)c3)c2o1 (stereo not drawn) [Compound 414, hydrochloride]	< 100 nM	< 100 nM	< 100 nM	
COc1cc(C(=O)N2CCC2)cnc1-c1cc2nccc(-c3ccc(OC4CCOCC4)c(C#N)c3)c2o1 [Compound 415, 5-(2-[5-[(azetidin-1-yl)carbonyl]-3-methoxypyridin-2-yl]furo[3,2-b]pyridin-7-yl)-2-(oxan-4-yloxy)benzonitrile]	< 100 nM		< 100 nM	100 to 1000 nM
COc1cc(C(=O)N2CCCC2)cnc1-c1cc2nccc(-c3ccc(OC4CCOCC4)c(C#N)c3)c2o1 [Compound 416, 5-(2-[3-methoxy-5-[(pyrrolidin-1-yl)carbonyl]pyridin-2-yl]furo[3,2-b]pyridin-7-yl)-2-(oxan-4-yloxy)benzonitrile hydrochloride]	< 100 nM	100 to 1000 nM	< 100 nM	
COc1cc(C(=O)N(C)C)ncc1-c1cc2nccc(-c3ccc(OC4CCNCC4(F)F)c(C#N)c3)c2o1 (stereo not drawn) [Compound 418, 5-(7-[3-cyano-4-[(3,3-difluoropiperidin-4-yl)oxy]phenyl]furo[3,2-b]pyridin-2-yl)-4-methoxy-N,N-dimethylpyridine-2-carboxamide hydrochloride]	< 100 nM	100 to 1000 nM	< 100 nM	
COc1cc(C(=O)N(C)C)ncc1-c1cc2nccc(-c3ccc(OC4CCN(C)CC4(F)F)c(C#N)c3)c2o1 (stereo not drawn) [Compound 419, 5-(7-[3-cyano-4-[(3,3-difluoro-1-methylpiperidin-4-yl)oxy]phenyl]furo[3,2-b]pyridin-2-yl)-4-methoxy-N,N-dimethylpyridine-2-carboxamide]	< 100 nM	100 to 1000 nM	< 100 nM	
COc1cc(C(=O)N2CC3COCC3C2)cnc1-c1cc2nccc(-c3ccc(NC4CCOCC4)c(C#N)c3)c2o1 (stereo not drawn) [Compound 420, 5-[2-[5-([hexahydro-1H-furo[3,4-c]pyrrol-5-yl]carbonyl)-3-methoxypyridin-2-yl]furo[3,2-b]pyridin-7-yl]-2-[(oxan-4-yl)amino]benzonitrile]	< 100 nM	100 to 1000 nM	< 100 nM	
COc1cc(C(=O)NC(C)(C)CCN(C)C)cnc1-c1cc2nccc(-c3ccc(NC4CCOCC4)c(C#N)c3)c2o1 [Compound 422, 6-(7-[3-cyano-4-[(oxan-4-yl)amino]phenyl]furo[3,2-b]pyridin-2-yl)-N-[4-(dimethylamino)-2-methylbutan-2-yl]-5-methoxypyridine-3-carboxamide]	< 100 nM	< 100 nM	< 100 nM	
COc1cc(C(=O)NC(C)(C)CCN(C)C)ncc1-c1cc2nccc(-c3ccc(NC4CCOCC4)c(C#N)c3)c2o1 [Compound 423, 5-(7-[3-cyano-4-[(oxan-4-yl)amino]phenyl]furo[3,2-b]pyridin-2-yl)-N-[4-(dimethylamino)-2-methylbutan-2-yl]-4-methoxypyridine-2-carboxamide]	< 100 nM	100 to 1000 nM	< 100 nM	
COc1cc(C(=O)N(C)C)ncc1-c1cc2nccc(-c3ccc(OC4CN(C)C4)c(C#N)c3)c2o1 [Compound 424, 5-(7-[3-cyano-4-[(1-methylazetidin-3-yl)oxy]phenyl]furo[3,2-b]pyridin-2-yl)-4-methoxy-N,N-dimethylpyridine-2-carboxamide]	100 to 1000 nM	100 to 1000 nM	100 to 1000 nM	
COc1cc(C(=O)N(C)C)cnc1-c1cc2nccc(-c3ccc(OC4CN(C)C4)c(C#N)c3)c2o1 [Compound 425, 6-(7-[3-cyano-4-[(1-methylazetidin-3-yl)oxy]phenyl]furo[3,2-b]pyridin-2-yl)-5-methoxy-N,N-dimethylpyridine-3-carboxamide]	100 to 1000 nM	100 to 1000 nM	100 to 1000 nM	
COc1cc(C(=O)N(C)C)cnc1-c1cc2nccc(-c3ccc(OC4CCN(C)C4)c(C#N)c3)c2o1 (stereo not drawn) [Compound 426, 6-(7-[3-cyano-4-[(1-methylpyrrolidin-3-yl)oxy]phenyl]furo[3,2-b]pyridin-2-yl)-5-methoxy-N,N-dimethylpyridine-3-carboxamide]	100 to 1000 nM	100 to 1000 nM	100 to 1000 nM	

Source: patent US10428080B2, “TBK/IKK inhibitor compounds and uses thereof” (Merck Patent GmbH, priority 2015, dated 2019)
